Assay results published in PMC6182381, “Population Pharmacokinetics and Exposure-Response Relationships of Naldemedine” (Pharmaceutical Research, 2018).
Where two headings read alike, the source gives them in different places.

How the values were obtained:
[1] = system: patients with chronic non-cancer pain and OIC; experiment: Adverse events / gastrointestinal disorders, phase 2b study 1107 V9221 (observed and PK/Safety logistic model); type: in vivo, human; details: for Gastrointestinal disorders, Mild / Gastrointestinal disorders, Moderate / Gastrointestinal disorders, Not_Reported / Gastrointestinal disorders, Severe: PK/safety population, 1107 V9221 (Phase 2b); for Predicted probability of gastrointestinal disorders: Phase 2b model; for Predicted probability of gastrointestinal disorders / Gastrointestinal disorders, Observation / Gastrointestinal disorders, Prediction: Moderate, Severe; for Gastrointestinal disorders, Observation / Gastrointestinal disorders, Prediction: Phase 2b
Description: (§1) Exposure-response analysis was used to evaluate the efficacy and safety data of the phase 2b and phase 3 studies ([2],[5]). The PK/Efficacy analysis included the subjects of the population PK analysis or in the placebo group, who also had efficacy data for the exposure-response analysis obtained from phase 2b and phase 3 studies (1107 V9221, 1314 V9231, and 1315 V9232). The PK/Safety analysis included the subjects of the population PK analysis or in the placebo group, who also had safety data for exposure-response analysis obtained from phase 2b and phase 3 studies (1107 V9221, 1314 V9231, and 1315 V9232).
(§2) The following efficacy variables were used to evaluate the exposure-response relationship. […] In the phase 3 studies (Study No. 1314 V9231 and 1315 V9232), an SBM responder was defined as having 9 positive response weeks or more out of the 12-weeks treatment period and 3 positive response weeks out of the last 4 weeks of the 12-weeks treatment period. A positive response week was defined as a week with both ≥3 SBMs and an increase of ≥1 SBM from the baseline. A subject with any insufficient response data was treated as a “non-responder”. The occurrence of treatment-emergent adverse events of gastrointestinal disorders as system organ class, which was the most frequently occurring type, was defined by the severity and assessed as safety variables.
(§3) No covariate was tested in the exposure-response analysis because no prognostic factors of the efficacy or safety were identified in the phase 2b and phase 3 studies ([2],[5]). Efficacy and safety data in Study No. 1314 V9231 and 1315 V9232 were combined because these studies were conducted as pivotal phase 3 studies using the same study design and were of the same treatment duration. The individual AUCss values for naldemedine were estimated by empirical Bayes estimation based on the population PK model. AUCss values of the subjects in the placebo group were treated as zero (0). For efficacy (responder or non-responder) and safety (occurrence of gastrointestinal disorders or not) variables, relationships to PK parameters were examined using the logistic model as shown in Eq. (3) with SAS (Version 9.2, SAS Institute).3 Probabilityefficacy or safety event=1/1+exp−a−b×PKparameter where a and b are the parameters to be estimated.

[2] = system: patients with chronic non-cancer pain and OIC; experiment: Adverse events / gastrointestinal disorders, phase 3 studies 1314 V9231 and 1315 V9232 (observed and PK/Safety logistic model); type: in vivo, human; details: for Predicted probability of gastrointestinal disorders: Phase 3 model
Description: as §1, §2, §3

[3] = design: method as in earlier work; details: oral 2 mg [14C]-labeled naldemedine; cited from earlier work
[4] = system: patients with chronic non-cancer pain and OIC; design: method as in PMID 28576452; details: cited from earlier work
[5] = system: patients with chronic non-cancer pain and OIC; design: method as in PMID 28576452; details: cited from earlier work; remark: listed apart in the source
[6] = PK/safety population, 1314 V9231 and 1315 V9232 (Phase 3), 0.2 mg
[7] = Phase 3, Mild, Moderate, Severe, 0.2 mg
[8] = Phase 3, Moderate, Severe, 0.2 mg

SMILES: CC(C)(NC(=O)C1=C(O)[C@@H]2Oc3c(O)ccc4c3[C@@]23CCN(CC2CC2)[C@H](C4)[C@]3(O)C1)c1nc(-c2ccccc2)no1 [naldemedine]
- Gastrointestinal disorders, Mild ([1]; 0.1 mg): 1 (11.1) Count (Row percent)
- Gastrointestinal disorders, Moderate ([1]; 0.1 mg): 1 (11.1) Count (Row percent)
- Gastrointestinal disorders, Not_Reported ([1]; 0.1 mg): 7 (77.8) Count (Row percent)
- Gastrointestinal disorders, Severe ([1]; 0.1 mg): 0 (0.0) Count (Row percent)
- Gastrointestinal disorders, Mild ([1]; 0.2 mg): 1 (11.1) Count (Row percent)
- Gastrointestinal disorders, Moderate ([1]; 0.2 mg): 3 (33.3) Count (Row percent)
- Gastrointestinal disorders, Not_Reported ([1]; 0.2 mg): 5 (55.6) Count (Row percent)
- Gastrointestinal disorders, Severe ([1]; 0.2 mg): 0 (0.0) Count (Row percent)
- Gastrointestinal disorders, Mild ([1]; 0.4 mg): 2 (20.0) Count (Row percent)
- Gastrointestinal disorders, Moderate ([1]; 0.4 mg): 1 (10.0) Count (Row percent)
- Gastrointestinal disorders, Not_Reported ([1]; 0.4 mg): 7 (70.0) Count (Row percent)
- Gastrointestinal disorders, Severe ([1]; 0.4 mg): 0 (0.0) Count (Row percent)
- Predicted probability of gastrointestinal disorders ([1]; Mild, Dose: 0.1 mg): 0.195
- Predicted probability of gastrointestinal disorders ([1]; Mild, Dose: 0.2 mg): 0.254
- Predicted probability of gastrointestinal disorders ([1]; Mild, Dose: 0.4 mg): 0.403
- Predicted probability of gastrointestinal disorders ([1]; Dose: 0.1 mg): 0.078
- Predicted probability of gastrointestinal disorders ([1]; Dose: 0.2 mg): 0.101
- Predicted probability of gastrointestinal disorders ([1]; Dose: 0.4 mg): 0.165
- Gastrointestinal disorders, Observation ([1]; Mild, 0.1 mg): 22.2
- Gastrointestinal disorders, Prediction ([1]; Mild, 0.1 mg): 19.5
- Gastrointestinal disorders, Observation ([1]; Mild, 0.2 mg): 44.4
- Gastrointestinal disorders, Prediction ([1]; Mild, 0.2 mg): 25.4
- Gastrointestinal disorders, Observation ([1]; Mild, 0.4 mg): 30.0
- Gastrointestinal disorders, Prediction ([1]; Mild, 0.4 mg): 40.3
- Gastrointestinal disorders, Observation ([1]; 0.1 mg): 11.1
- Gastrointestinal disorders, Prediction ([1]; 0.1 mg): 7.8
- Gastrointestinal disorders, Observation ([1]; 0.2 mg): 33.3
- Gastrointestinal disorders, Prediction ([1]; 0.2 mg): 10.1
- Gastrointestinal disorders, Observation ([1]; 0.4 mg): 10.0
- Gastrointestinal disorders, Prediction ([1]; 0.4 mg): 16.5
- predicted probability of severe gastrointestinal disorders ([2]; 0.2 mg and 0.4 mg, phase 3 study): less than 3%
- predicted probability of severe gastrointestinal disorders ([2]; 0.2 mg once daily): less than 3%
- predicted probability of mild to severe gastrointestinal disorders ([2]; 0.2 mg, phase 3): 19.3%
- predicted probability of moderate to severe gastrointestinal disorders ([2]; 0.2 mg, phase 3): 8.3%
- predicted probability of severe gastrointestinal disorders ([2]; 0.2 mg, phase 3): 1.8%
- Gastrointestinal disorders, Mild [2, 6]: 52 (11.7) Count (Row percent)
- Gastrointestinal disorders, Moderate [2, 6]: 34 (7.6) Count (Row percent)
- Gastrointestinal disorders, Not_Reported [2, 6]: 351 (78.9) Count (Row percent)
- Gastrointestinal disorders, Severe [2, 6]: 8 (1.8) Count (Row percent)
- Gastrointestinal disorders, Observation [2, 7]: 21.1
- Gastrointestinal disorders, Prediction [2, 7]: 19.3
- Gastrointestinal disorders, Observation [2, 8]: 9.4
- Gastrointestinal disorders, Prediction [2, 8]: 8.3
- Gastrointestinal disorders, Observation ([2]; Phase 3, Severe, 0.2 mg): 1.8
- Gastrointestinal disorders, Prediction ([2]; Phase 3, Severe, 0.2 mg): 1.8
- Predicted probability of gastrointestinal disorders ([2]; Mild, Moderate, Severe, Dose: 0.1 mg): 0.172
- Predicted probability of gastrointestinal disorders ([2]; Mild, Moderate, Severe, Dose: 0.2 mg): 0.193
- Predicted probability of gastrointestinal disorders ([2]; Mild, Moderate, Severe, Dose: 0.4 mg): 0.242
- Predicted probability of gastrointestinal disorders ([2]; Moderate, Severe, Dose: 0.1 mg): 0.071
- Predicted probability of gastrointestinal disorders ([2]; Moderate, Severe, Dose: 0.2 mg): 0.083
- Predicted probability of gastrointestinal disorders ([2]; Moderate, Severe, Dose: 0.4 mg): 0.113
- Predicted probability of gastrointestinal disorders ([2]; Severe, Dose: 0.1 mg): 0.015
- Predicted probability of gastrointestinal disorders ([2]; Severe, Dose: 0.2 mg): 0.018
- Predicted probability of gastrointestinal disorders ([2]; Severe, Dose: 0.4 mg): 0.027
- total radioactivity excreted in feces [3]: 35 % of the administered dose
- total radioactivity excreted in urine [3]: 57 % of the administered dose
- proportion of responders ([4]; Study 1314 V9231 (Phase 3)): 47.6%
- proportion of responders ([4]; Study 1315 V9232 (Phase 3)): 52.5%
- Treatment-related adverse events (patients) ([5]; Study 1314 V9231, 59 of 271 patients): 22%
- Treatment-related adverse events (patients) ([5]; Study 1315 V9232, 54 of 271 patients): 20%
